The source of these data is publication PMC7827406, “Structure–Activity Relationship (SAR) Study of Spautin-1 to Entail the Discovery of Novel NEK4 Inhibitors” (International Journal of Molecular Sciences, 2021).

Where two headings read alike, the source gives them in different places.

What all share (assay): biochemical
Common to all, as to set-up: Eurofins KinaseProfiler full panel at Km ATP, residual kinase activity (%) relative to DMSO

For one test, the target named is T1, DDR2(h) (Homo sapiens, UniProt Q16832).
T1 sequence (Q16832 1-855): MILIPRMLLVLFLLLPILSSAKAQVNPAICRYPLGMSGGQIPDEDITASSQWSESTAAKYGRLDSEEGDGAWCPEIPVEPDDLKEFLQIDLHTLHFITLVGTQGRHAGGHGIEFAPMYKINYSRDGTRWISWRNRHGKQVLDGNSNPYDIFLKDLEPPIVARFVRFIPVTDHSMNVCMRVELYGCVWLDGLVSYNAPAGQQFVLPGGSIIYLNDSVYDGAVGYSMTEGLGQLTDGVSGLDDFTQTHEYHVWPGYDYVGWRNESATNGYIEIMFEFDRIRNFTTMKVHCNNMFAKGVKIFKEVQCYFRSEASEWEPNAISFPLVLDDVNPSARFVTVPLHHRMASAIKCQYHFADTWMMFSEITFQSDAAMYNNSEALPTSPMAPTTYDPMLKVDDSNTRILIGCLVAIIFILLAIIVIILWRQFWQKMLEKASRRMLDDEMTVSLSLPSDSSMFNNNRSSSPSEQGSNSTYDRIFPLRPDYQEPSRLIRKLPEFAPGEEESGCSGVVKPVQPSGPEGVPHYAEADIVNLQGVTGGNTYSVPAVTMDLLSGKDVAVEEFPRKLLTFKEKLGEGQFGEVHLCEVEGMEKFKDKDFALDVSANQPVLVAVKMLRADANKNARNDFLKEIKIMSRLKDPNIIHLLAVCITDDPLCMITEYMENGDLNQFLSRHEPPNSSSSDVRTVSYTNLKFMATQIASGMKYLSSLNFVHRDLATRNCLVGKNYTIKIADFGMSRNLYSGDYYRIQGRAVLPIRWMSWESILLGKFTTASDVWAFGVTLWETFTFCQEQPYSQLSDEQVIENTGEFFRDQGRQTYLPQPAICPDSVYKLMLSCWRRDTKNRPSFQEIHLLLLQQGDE
How it is done: (§1) Eurofins performed a “Full KP Panel [Km ATP], KinaseProfile” which contains 429 radiometric kinase activity assays. The remaining kinase activity (%) was determined after treatment with the compounds at a concentration of 10 µM (Cfr. supporting information). Since we could not confirm the interaction between Spautin-1 analogues and USP13, a kinase screening was performed using a set of four compounds (Spautin-1 and three analogues) to discover off-targets and identify kinases that are potentially responsible for the reduction in cell viability observed in our screen (Table 2). The KINOMEscan from Eurofins was performed (see Table S1). This screen consists of a competitive binding assay in which the DNA-tagged kinase is incubated with one of the compounds in the presence of immobilized active site binding ligands. Binding of the compounds to the kinase hampers the binding of the kinase to the ligands and this inhibition was quantified by qPCR. The residual kinase activity, which represents the percentage of kinase attached to the immobilized ligands, was determined for 428 kinases at a standard screening concentration of 10 µM of the compounds dissolved in DMSO [61].

In another test the target is Flt1(h) (Homo sapiens, UniProt P17948). The method, then: as §1
Another test has as its target T2, GCN2(h) (Homo sapiens, UniProt Q9P2K8).
T2 construct: gene EIF2AK4
The method, then:
as §1

The target in the next test is T3, MEK1(h) (Homo sapiens, UniProt Q02750).
T3 construct: gene MAP2K1
How it is done: as §1

The next test addresses PAK4(h) (Homo sapiens, UniProt O96013). The method, then: as §1
A further test concerns the target T4, PrKX(h) (Homo sapiens, UniProt P51817).
T4 sequence (P51817 1-358): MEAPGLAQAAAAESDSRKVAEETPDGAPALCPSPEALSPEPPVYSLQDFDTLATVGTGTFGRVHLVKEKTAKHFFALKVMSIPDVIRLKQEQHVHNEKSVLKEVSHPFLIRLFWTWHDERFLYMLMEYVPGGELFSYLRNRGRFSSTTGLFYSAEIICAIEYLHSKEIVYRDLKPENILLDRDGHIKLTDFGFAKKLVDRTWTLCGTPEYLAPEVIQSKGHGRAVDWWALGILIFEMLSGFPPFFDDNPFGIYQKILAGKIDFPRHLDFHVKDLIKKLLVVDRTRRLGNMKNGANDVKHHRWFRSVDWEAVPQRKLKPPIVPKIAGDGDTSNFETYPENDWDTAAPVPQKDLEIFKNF
How it is done: as §1

Another test deals with T5, SIK(h) (Homo sapiens, UniProt P57059).
T5 construct: gene SIK1
The method, then: as §1

The next test concerns the target T6, cKit(V654A)(h) (Homo sapiens, UniProt P10721, V654A).
T6 construct: gene KIT
The method, then:
as §1

[1] abbreviates: read-out: Residual activity (%) Spautin-1 5aa.
Where [2] appears, read: read-out: Residual activity (%) 5as.
The mark [3] stands for this setting: read-out: Residual activity (%) 5at.
Where [4] appears, read: read-out: Residual activity (%) 5ay.

T5 sequence (P57059 whole entry): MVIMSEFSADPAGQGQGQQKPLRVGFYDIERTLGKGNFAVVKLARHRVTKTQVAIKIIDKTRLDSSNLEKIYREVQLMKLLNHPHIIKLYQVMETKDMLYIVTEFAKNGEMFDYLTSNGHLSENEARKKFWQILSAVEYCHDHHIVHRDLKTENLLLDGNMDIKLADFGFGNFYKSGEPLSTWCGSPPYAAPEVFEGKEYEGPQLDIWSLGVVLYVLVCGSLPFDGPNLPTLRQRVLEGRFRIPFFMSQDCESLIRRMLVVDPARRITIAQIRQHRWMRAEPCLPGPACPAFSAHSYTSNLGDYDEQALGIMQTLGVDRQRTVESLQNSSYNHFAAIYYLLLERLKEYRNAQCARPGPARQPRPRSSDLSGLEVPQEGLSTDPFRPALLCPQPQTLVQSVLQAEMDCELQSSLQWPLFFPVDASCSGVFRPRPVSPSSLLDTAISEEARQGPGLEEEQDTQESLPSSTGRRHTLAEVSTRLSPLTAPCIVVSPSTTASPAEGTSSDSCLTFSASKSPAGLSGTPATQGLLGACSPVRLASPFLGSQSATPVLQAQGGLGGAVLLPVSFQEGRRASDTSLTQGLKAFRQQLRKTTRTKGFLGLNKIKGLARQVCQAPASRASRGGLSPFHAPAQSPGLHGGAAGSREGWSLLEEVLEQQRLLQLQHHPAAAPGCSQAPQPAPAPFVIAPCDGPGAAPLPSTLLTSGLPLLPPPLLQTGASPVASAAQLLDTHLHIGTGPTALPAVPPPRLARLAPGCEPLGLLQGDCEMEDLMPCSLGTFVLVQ
Sequence of Flt1(h) (P17948 whole entry): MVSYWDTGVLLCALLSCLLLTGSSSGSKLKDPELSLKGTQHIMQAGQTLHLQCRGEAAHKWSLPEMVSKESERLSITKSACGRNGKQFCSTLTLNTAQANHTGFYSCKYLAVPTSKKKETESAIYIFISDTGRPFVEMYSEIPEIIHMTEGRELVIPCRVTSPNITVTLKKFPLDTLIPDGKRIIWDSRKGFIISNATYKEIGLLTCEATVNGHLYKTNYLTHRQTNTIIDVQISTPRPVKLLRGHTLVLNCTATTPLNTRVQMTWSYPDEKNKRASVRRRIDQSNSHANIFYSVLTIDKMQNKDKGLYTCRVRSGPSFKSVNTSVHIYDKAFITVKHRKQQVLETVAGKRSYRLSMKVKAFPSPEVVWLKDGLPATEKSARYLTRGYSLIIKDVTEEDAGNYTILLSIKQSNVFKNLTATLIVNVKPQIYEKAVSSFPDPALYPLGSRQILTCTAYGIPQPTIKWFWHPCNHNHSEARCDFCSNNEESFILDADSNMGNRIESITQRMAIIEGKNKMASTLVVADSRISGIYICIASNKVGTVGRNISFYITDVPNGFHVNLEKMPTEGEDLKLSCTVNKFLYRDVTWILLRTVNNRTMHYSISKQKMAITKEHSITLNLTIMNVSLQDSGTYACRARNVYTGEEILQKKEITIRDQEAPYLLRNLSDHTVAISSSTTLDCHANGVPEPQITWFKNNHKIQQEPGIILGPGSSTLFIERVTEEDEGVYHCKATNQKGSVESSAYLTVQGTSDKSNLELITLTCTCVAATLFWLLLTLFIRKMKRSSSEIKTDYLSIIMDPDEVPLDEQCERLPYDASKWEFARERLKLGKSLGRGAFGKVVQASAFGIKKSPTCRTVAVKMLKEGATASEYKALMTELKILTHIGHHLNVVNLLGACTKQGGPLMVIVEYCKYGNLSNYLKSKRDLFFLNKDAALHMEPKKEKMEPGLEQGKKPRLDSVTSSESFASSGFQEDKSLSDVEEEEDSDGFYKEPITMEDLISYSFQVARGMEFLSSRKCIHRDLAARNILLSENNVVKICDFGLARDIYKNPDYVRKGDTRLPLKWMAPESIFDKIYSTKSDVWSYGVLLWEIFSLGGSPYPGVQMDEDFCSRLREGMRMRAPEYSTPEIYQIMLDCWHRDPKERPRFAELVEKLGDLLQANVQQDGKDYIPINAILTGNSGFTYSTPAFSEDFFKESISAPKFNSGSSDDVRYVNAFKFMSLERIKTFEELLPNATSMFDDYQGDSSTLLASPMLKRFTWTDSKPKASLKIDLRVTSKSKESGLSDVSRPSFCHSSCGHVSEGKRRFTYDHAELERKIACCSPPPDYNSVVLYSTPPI
Sequence of PAK4(h) (O96013 whole entry): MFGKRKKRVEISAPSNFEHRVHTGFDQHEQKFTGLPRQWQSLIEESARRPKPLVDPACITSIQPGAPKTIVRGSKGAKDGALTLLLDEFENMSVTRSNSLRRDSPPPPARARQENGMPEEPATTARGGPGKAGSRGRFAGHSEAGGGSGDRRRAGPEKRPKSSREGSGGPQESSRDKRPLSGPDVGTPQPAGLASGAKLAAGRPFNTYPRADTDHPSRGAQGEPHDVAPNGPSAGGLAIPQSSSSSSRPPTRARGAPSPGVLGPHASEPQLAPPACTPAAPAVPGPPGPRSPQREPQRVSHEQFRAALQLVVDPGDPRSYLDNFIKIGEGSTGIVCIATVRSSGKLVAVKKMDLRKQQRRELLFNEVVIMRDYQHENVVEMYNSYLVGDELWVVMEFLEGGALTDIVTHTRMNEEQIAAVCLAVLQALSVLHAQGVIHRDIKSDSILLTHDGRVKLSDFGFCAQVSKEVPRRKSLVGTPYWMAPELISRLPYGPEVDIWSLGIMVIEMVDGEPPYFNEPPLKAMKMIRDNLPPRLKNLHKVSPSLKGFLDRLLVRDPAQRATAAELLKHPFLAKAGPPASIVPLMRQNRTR
T2 sequence (Q9P2K8 whole entry): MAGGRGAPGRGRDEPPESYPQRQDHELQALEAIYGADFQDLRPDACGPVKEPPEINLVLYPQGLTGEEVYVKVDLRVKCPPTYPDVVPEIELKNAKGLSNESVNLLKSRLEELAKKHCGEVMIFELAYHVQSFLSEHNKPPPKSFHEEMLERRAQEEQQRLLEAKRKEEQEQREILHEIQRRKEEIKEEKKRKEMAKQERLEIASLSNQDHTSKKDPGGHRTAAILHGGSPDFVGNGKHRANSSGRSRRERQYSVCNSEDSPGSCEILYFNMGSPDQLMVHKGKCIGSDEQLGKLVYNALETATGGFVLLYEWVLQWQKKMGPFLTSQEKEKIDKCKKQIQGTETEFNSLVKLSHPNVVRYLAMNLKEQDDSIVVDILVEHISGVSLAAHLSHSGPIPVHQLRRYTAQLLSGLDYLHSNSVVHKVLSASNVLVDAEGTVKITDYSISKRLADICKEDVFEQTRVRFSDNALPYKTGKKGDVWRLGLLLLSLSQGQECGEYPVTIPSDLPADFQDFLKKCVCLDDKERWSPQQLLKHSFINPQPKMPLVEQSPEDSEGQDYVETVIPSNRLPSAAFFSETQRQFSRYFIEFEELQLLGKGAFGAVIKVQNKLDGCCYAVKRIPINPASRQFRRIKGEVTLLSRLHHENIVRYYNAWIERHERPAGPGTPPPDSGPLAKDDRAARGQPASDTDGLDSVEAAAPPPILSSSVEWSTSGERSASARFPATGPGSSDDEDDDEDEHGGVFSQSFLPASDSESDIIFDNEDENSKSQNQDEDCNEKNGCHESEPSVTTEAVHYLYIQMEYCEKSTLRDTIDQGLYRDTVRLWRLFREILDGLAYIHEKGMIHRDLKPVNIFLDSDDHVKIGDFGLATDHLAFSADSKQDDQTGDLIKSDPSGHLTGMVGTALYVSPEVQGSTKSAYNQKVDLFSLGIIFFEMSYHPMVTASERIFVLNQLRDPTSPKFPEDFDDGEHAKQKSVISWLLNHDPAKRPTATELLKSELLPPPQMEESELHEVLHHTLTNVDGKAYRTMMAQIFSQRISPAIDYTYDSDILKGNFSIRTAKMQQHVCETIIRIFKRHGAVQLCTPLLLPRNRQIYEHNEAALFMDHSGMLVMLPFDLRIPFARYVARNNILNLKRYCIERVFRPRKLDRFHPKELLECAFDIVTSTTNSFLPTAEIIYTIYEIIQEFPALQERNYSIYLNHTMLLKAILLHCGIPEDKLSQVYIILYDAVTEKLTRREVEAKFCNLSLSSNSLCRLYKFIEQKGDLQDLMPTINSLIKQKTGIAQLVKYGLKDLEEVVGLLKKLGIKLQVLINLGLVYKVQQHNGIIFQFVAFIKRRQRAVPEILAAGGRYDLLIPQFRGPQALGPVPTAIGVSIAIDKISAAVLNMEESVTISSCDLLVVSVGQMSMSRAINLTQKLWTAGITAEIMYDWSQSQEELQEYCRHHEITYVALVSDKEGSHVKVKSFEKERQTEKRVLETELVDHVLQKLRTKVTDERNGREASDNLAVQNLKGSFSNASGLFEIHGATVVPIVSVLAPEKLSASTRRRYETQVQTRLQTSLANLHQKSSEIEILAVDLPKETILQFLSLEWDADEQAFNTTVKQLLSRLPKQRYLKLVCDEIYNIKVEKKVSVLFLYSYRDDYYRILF
T3 sequence (Q02750 whole entry): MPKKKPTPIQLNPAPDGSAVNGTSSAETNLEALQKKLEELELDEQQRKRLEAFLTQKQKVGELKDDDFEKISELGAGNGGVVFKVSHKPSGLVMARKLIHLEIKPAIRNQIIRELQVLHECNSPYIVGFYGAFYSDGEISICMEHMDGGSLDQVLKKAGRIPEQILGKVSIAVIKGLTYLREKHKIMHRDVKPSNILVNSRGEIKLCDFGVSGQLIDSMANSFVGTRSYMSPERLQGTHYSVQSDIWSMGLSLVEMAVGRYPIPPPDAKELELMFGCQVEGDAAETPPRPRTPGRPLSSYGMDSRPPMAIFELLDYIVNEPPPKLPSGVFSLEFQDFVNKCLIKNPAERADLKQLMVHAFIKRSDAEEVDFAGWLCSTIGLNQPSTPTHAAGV

For `Fc1ccc(CNc2ncnc3ccc(F)cc23)cc1` [5aa, 6-Fluoro-N-(4-fluorobenzyl)-4-Quinazolinamine], the remaining activity at 10 µM on DDR2(h) (setting [1]) was determined as 87%; on Flt1(h) (setting [1]), 101%; on GCN2(h) (setting [1]) it was 85%; at MEK1(h) (setting [1]), 91%; on PAK4(h) (setting [1]) it was 90%; at PrKX(h) (setting [1]), 97%. Moreover, the values for the remaining activity at 10 µM on SIK(h) (setting [1]) and on cKit(V654A)(h) (setting [1]) were 98% and 112%, respectively.
Consider `Fc1ccc(CCNc2ncnc3ccc(F)cc23)cc1` [5as, 6-Fluoro-N-[2-(4-Fluorophenyl)Ethyl]-4-Quinazolinamine], for which the remaining activity at 10 µM at DDR2(h) (setting [2]) was 80%; at Flt1(h) (setting [2]), 86%; on GCN2(h) (setting [2]), 85%; on MEK1(h) (setting [2]), 84%; on PAK4(h) (setting [2]), 92%; on PrKX(h) (setting [2]) it was 97%. The remaining activity at 10 µM was determined as 90% at SIK(h) (setting [2]) and 85% at cKit(V654A)(h) (setting [2]).
For the molecule `Fc1ccc2ncnc(NCCc3ccc(Cl)cc3)c2c1` [5at, N-[2-(4-Chlorophenyl)Ethyl]-6-Fluoro-4-Quinazolinamine], the remaining activity at 10 µM stood at 82% on DDR2(h) (setting [3]); 80% on Flt1(h) (setting [3]); 97% at GCN2(h) (setting [3]); 73% on MEK1(h) (setting [3]); 90% on PAK4(h) (setting [3]); 112% at PrKX(h) (setting [3]). For the same molecule, the remaining activity at 10 µM at SIK(h) (setting [3]) is 86%; on cKit(V654A)(h) (setting [3]) it was 85%.
On to `COc1ccc2ncnc(Nc3cccc(F)c3)c2c1` [5ay, N-(3-Fluorophenyl)-6-Methoxy-4-Quinazolinamine], for which the remaining activity at 10 µM at DDR2(h) (setting [4]) turned out to be 84%; on Flt1(h) (setting [4]), 87%; on GCN2(h) (setting [4]), 83%; on MEK1(h) (setting [4]) it was 93%; at PAK4(h) (setting [4]), 83%; at PrKX(h) (setting [4]), 93%. The remaining activity at 10 µM was 74% at SIK(h) (setting [4]) and 92% at cKit(V654A)(h) (setting [4]).
